From patent publication US10702492B2, “PPARα activator, pharmaceutical composition, food and drink, food additive, supplement and method of manufacturing the same” (Marukome Co., Ltd., priority 2015, dated 2020)
Entries after “also recorded” stand apart in the source; their conditions may differ.

Legend:
human PPARα = target: T1, human PPARα (Homo sapiens, UniProt Q07869); experiment: PPARα luciferase assay; format: cell-based; details: CV-1 cells, 1.3 μM, 24 hours after the addition; FIG. 6 and FIG. 7
T1 construct: expressed in transfected cells; host or cells: CV-1 cells
T1 sequence (Q07869 239-466 limits assumed): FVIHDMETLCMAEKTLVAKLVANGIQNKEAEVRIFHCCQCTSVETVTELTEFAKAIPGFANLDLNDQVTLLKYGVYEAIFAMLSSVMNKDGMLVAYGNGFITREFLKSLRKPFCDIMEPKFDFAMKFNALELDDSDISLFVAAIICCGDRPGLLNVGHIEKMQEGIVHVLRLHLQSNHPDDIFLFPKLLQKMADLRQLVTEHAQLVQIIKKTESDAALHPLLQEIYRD
Protocol: The PPARα activity of koji extract 1 was evaluated by PPARα luciferase assay. The assay was performed by a method as previously described (T. Goto et al., Biochemical and Biophysical Research Communications 337(2005) 440-445).
Specifically, CV-1 cells that were transfected with p4×UASg-tk-luc (reporter plasmid), pM-hPPARα (expression vector for DNA-binding domain of GAL4 and ligand-binding domain of human PPARα for chimeric protein), pRL-CMV (internal control for normalizing transfection efficiency) and Lipofectamine™ Reagent. The cells were cultured in a DMEM culture medium containing 10% FBS and penicillin/streptomycin (10 mg/mL).
The CV-1 cells were transfected with the vector with Lipofectamine and cultured for 24 hours. Then, the medium was replaced with a medium added with 0.1 mg/mL, 0.5 mg/mL or 5 mg/mL of the concentrated koji extract 1 with 70% ethanol (dilution rate: 50 times), respectively, and the CV-1 cells were further cultured for 24 hours. The measurement of luciferase activity was performed by using Dual-Luciferase(R) Reporter Assay System (Promega) and a luminometer (MicroLumat Plus, Berthold Japan Co., Ltd.) according to the protocols of the reagent and the luminometer.
As a positive control, a medium added with […] of a known PPARα agonist, GW-7647 (2-[4-[2-[1-(4-cyclohexylbutyl)-3-cyclohexylureido]ethyl]phenylthio]isobutyric acid) was used. […]

[1] = system: mouse primary-cultured hepatocytes; experiment: TG accumulation in mouse primary-cultured hepatocytes (TG kit); format: cell-based; details: 24 hours, 500 μM oleic acid medium, vs. negative control (CT+), FIG. 8
Protocol: The effect on the accumulation of triglyceride ([…]) of a koji extract was evaluated by using mouse primary-cultured hepatocytes and koji extract 1 used in Example 1.
Primary-cultured hepatocytes were prepared from hepatocytes separated from C57BL/6J mice (6 week old, male), and were seeded in a 12-well plate (2×10^5 cells/ml). After confirming the attachment of the cells to the plate at 3-5 hours after the seeding, the medium was replaced with a serum-free medium (low-glucose DMEM, 1% P/S, 500 μM oleic acid, 20 μg/mL BSA). At this time, koji extract 1 was added in an amount of 0.1 mg/mL or 1 mg/mL. As a positive control, a medium added with GW-7647 ([…]) was used.
At 24 hours after the addition, the amount of TG accumulation of the primary-cultured hepatocytes was measured with a TG kit (Wako). […] The error bar refers to SE (n=4), * is p<0.05, ** is p<0.01 (vs. control).
The effect on triglyceride (TG) accumulation of 9-HODE:10E,12E was evaluated by using mouse primary-cultured hepatocytes.
Primary-cultured hepatocytes were prepared from hepatocytes separated from C57BL/6J mice (6 week old, male), and seeded in a 12-well plate (2×10^5 cells/ml). […]
At 24 hours after the addition, the accumulation amount of TG was measured by using a TG kit (Wako). […]

CCCCC/C=C/C=C/C(O)CCCCCCCC(=O)O (stereo not drawn) [9-HODE:10E,12E, 9-hydroxy-10,12-octadecadienoic acid]
PPARα activity (human PPARα): remarkably high; also recorded: relatively high | accumulation amount of TG ([1]; 3 μM): significant decrease | accumulation amount of TG ([1]; 10 μM): significant decrease
